What was measured:
[1] = human gut metagenome, 24 h, 2 µM
[2] = human gut metagenome, 24 h, 2 µM; remark: listed apart in the source
[3] = human gut metagenome, 24 h, 2 µM; remark: listed apart in the source
[4] = human gut metagenome, 24 h, 2 µM; remark: listed apart in the source
[5] = The drug is tested on WLS-038 corresponding to human gut metagenome with ENA study accession number: PRJEB37062 and ENA sample accession number: ERS12561745 for biotransformation under anaerobic condition. The drug concentrations were measured over 9 timepoints collected between 0 and 24 hours of incubation by liquid-chromatography-coupled mass spectrometry (LC–MS); conditions: 2 µM
[6] = The drug is tested on WLS-350 corresponding to human gut metagenome with ENA study accession number: PRJEB37062 and ENA sample accession number: ERS12561789 for biotransformation under anaerobic condition. The drug concentrations were measured over 9 timepoints collected between 0 and 24 hours of incubation by liquid-chromatography-coupled mass spectrometry (LC–MS); conditions: 2 µM
[7] = The drug is tested on Z-021 corresponding to metagenome with ENA study accession number: PRJEB37062 and ENA sample accession number: ERS12561820 for biotransformation under anaerobic condition. The drug concentrations were measured over 9 timepoints collected between 0 and 24 hours of incubation by liquid-chromatography-coupled mass spectrometry (LC–MS); conditions: 2 µM
[8] = The drug is tested on WLS-010 corresponding to human gut metagenome with ENA study accession number: PRJEB37062 and ENA sample accession number: ERS12561743 for biotransformation under anaerobic condition. The drug concentrations were measured over 9 timepoints collected between 0 and 24 hours of incubation by liquid-chromatography-coupled mass spectrometry (LC–MS); conditions: 2 µM
[9] = The drug is tested on WLS-073 corresponding to human gut metagenome with ENA study accession number: PRJEB37062 and ENA sample accession number: ERS12561749 for biotransformation under anaerobic condition. The drug concentrations were measured over 9 timepoints collected between 0 and 24 hours of incubation by liquid-chromatography-coupled mass spectrometry (LC–MS); conditions: 2 µM
[10] = human gut metagenome, 24 h, 2 µM; remark: listed apart in the source
[11] = The drug is tested on WLS-027 corresponding to human gut metagenome with ENA study accession number: PRJEB37062 and ENA sample accession number: ERS12561744 for biotransformation under anaerobic condition. The drug concentrations were measured over 9 timepoints collected between 0 and 24 hours of incubation by liquid-chromatography-coupled mass spectrometry (LC–MS); conditions: 2 µM
[12] = The drug is tested on WLS-220 corresponding to human gut metagenome with ENA study accession number: PRJEB37062 and ENA sample accession number: ERS12561769 for biotransformation under anaerobic condition. The drug concentrations were measured over 9 timepoints collected between 0 and 24 hours of incubation by liquid-chromatography-coupled mass spectrometry (LC–MS); conditions: 2 µM
[13] = human gut metagenome, 24 h, 2 µM; remark: listed apart in the source
[14] = human gut metagenome, 24 h, 2 µM; remark: listed apart in the source
[15] = The drug is tested on Z-024 corresponding to pig gut metagenome with ENA study accession number: PRJEB37062 and ENA sample accession number: ERS12561823 for biotransformation under anaerobic condition. The drug concentrations were measured over 9 timepoints collected between 0 and 24 hours of incubation by liquid-chromatography-coupled mass spectrometry (LC–MS); conditions: 2 µM
[16] = The drug is tested on Z-006 corresponding to mouse gut metagenome with ENA study accession number: PRJEB37062 and ENA sample accession number: ERS12561806 for biotransformation under anaerobic condition. The drug concentrations were measured over 9 timepoints collected between 0 and 24 hours of incubation by liquid-chromatography-coupled mass spectrometry (LC–MS); conditions: 2 µM
[17] = human gut metagenome, 24 h, 2 µM; remark: listed apart in the source
[18] = human gut metagenome, 24 h, 2 µM; remark: listed apart in the source
[19] = The drug is tested on WLS-170 corresponding to human gut metagenome with ENA study accession number: PRJEB37062 and ENA sample accession number: ERS12561762 for biotransformation under anaerobic condition. The drug concentrations were measured over 9 timepoints collected between 0 and 24 hours of incubation by liquid-chromatography-coupled mass spectrometry (LC–MS); conditions: 2 µM
[20] = The drug is tested on Z-016 corresponding to mouse gut metagenome with ENA study accession number: PRJEB37062 and ENA sample accession number: ERS12561815 for biotransformation under anaerobic condition. The drug concentrations were measured over 9 timepoints collected between 0 and 24 hours of incubation by liquid-chromatography-coupled mass spectrometry (LC–MS); conditions: 2 µM
Further: call rule not given here.

Compound | Bacterial Biotransformation [1] | Bacterial Biotransformation [2] | Bacterial Biotransformation [3] | Bacterial Biotransformation [4] | Bacterial Biotransformation [5] | Bacterial Biotransformation [6] | Bacterial Biotransformation [7] | Bacterial Biotransformation [8] | Bacterial Biotransformation [9] | Bacterial Biotransformation [10] | Bacterial Biotransformation [11] | Bacterial Biotransformation [12] | Bacterial Biotransformation [13] | Bacterial Biotransformation [14] | Bacterial Biotransformation [15] | Bacterial Biotransformation [16] | Bacterial Biotransformation [17] | Bacterial Biotransformation [18] | Bacterial Biotransformation [19] | Bacterial Biotransformation [20]
CCN(CC)C(=O)C1(c2ccccc2)CC1CN (stereo not given) | Compound NOT metabolized | Compound NOT metabolized | Compound NOT metabolized | Compound NOT metabolized | Compound NOT metabolized | Compound NOT metabolized | Compound NOT metabolized | Compound NOT metabolized | Compound NOT metabolized | Compound NOT metabolized | Compound NOT metabolized | Compound NOT metabolized | Compound NOT metabolized | Compound NOT metabolized | Compound NOT metabolized | Compound NOT metabolized | Compound NOT metabolized | Compound NOT metabolized | Compound metabolized | Compound NOT metabolized
CCN(CC)CCNC(=O)c1ccc(NC(C)=O)cc1 [ACECAINIDE] | Compound metabolized | Compound metabolized | Compound NOT metabolized | Compound NOT metabolized | Compound NOT metabolized | Compound NOT metabolized | Compound NOT metabolized | Compound NOT metabolized | Compound NOT metabolized | Compound metabolized | Compound NOT metabolized | Compound NOT metabolized | Compound NOT metabolized | Compound NOT metabolized | Compound NOT metabolized | Compound NOT metabolized | Compound NOT metabolized | Compound NOT metabolized | Compound metabolized | Compound NOT metabolized
C[N+]12CCC(CC1)C(OC(=O)C(O)(c1ccccc1)c1ccccc1)C2.[Br-] (stereo not given) [CLIDINIUM BROMIDE] | Compound metabolized | Compound NOT metabolized | Compound NOT metabolized | Compound NOT metabolized | Compound NOT metabolized | Compound metabolized | Compound NOT metabolized | Compound NOT metabolized | Compound NOT metabolized | Compound metabolized | Compound NOT metabolized | Compound NOT metabolized | Compound NOT metabolized | Compound NOT metabolized | Compound metabolized | Compound NOT metabolized | Compound metabolized | Compound metabolized | Compound metabolized | Compound NOT metabolized
Clc1cccc(Cl)c1N=C1NCCN1 [CLONIDINE] | Compound metabolized | Compound metabolized | Compound metabolized | Compound NOT metabolized | Compound NOT metabolized | Compound NOT metabolized | Compound NOT metabolized | Compound metabolized | Compound NOT metabolized | Compound metabolized | Compound NOT metabolized | Compound metabolized | Compound NOT metabolized | Compound NOT metabolized | Compound NOT metabolized | Compound NOT metabolized | Compound metabolized | Compound metabolized | Compound metabolized | Compound NOT metabolized
O=C(CCCN1CCC2(CC1)C(=O)NCN2c1ccccc1)c1ccc(F)cc1 [SPIPERONE] | Compound metabolized | Compound metabolized | Compound NOT metabolized | Compound NOT metabolized | Compound NOT metabolized | Compound NOT metabolized | Compound NOT metabolized | Compound NOT metabolized | Compound NOT metabolized | Compound metabolized | Compound NOT metabolized | Compound metabolized | Compound NOT metabolized | Compound NOT metabolized | Compound NOT metabolized | Compound NOT metabolized | Compound metabolized | Compound metabolized | Compound metabolized | Compound NOT metabolized
CC(=O)O[C@]1(C(C)=O)CC[C@H]2[C@@H]3C=C(C)C4=CC(=O)CC[C@]4(C)[C@H]3CC[C@@]21C [MEGESTROL ACETATE] | Compound metabolized | Compound metabolized | Compound metabolized | Compound metabolized | Compound metabolized | Compound metabolized | Compound NOT metabolized | Compound metabolized | Compound metabolized | Compound metabolized | Compound metabolized | Compound metabolized | Compound metabolized | Compound metabolized | Compound NOT metabolized | Compound metabolized | Compound metabolized | Compound metabolized | Compound metabolized | Compound metabolized

— ChEMBL document CHEMBL5724914, “Linking interpersonal differences in gut microbiota composition and drug biotransformation activity” (2024)
